Laboratory results published in doi:10.1101/2025.03.14.643404, “A Bivalent Molecular Glue Linking Lysine Acetyltransferases to Oncogene-induced Cell Death” (bioRxiv, 2025).
Like-named read-outs stand apart in the source and are kept apart here.

How the values were obtained:
p300^BD = molecular target: T1, p300^BD (Homo sapiens, UniProt Q09472); assay: Isothermal calorimetry, p300BD titrations; format: binding; details: ITC; for Kd: 25 °C
T1 sequence (Q09472 1049-1156 limits assumed): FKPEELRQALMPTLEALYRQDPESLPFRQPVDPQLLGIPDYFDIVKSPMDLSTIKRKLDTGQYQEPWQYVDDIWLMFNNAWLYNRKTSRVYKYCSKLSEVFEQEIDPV
Experimental: 12 hours prior to performing ITC, frozen stocks of 6xHis-p300^BD and BCL6^BTB were dialyzed for two hours in ITC buffer at 4°C (50 mM HEPES pH 7.4, 100 μM TCEP, 150 mM NaCl), followed by dialysis in fresh ITC buffer overnight at 4°C to remove glycerol and equalize protein mixtures. Samples were centrifuged at 10,000g for 10 min to remove any precipitate. In all titrations, DMSO was added to protein mixtures to match the DMSO concentration of ligand dissolved in ITC buffer. For binary assays with TCIP3, dialyzed 6xHis-p300^BD or BCL6^BTB were titrated from the syringe into a cell containing TCIP3 dissolved in ITC buffer. For p300 titrations, 50 μM or 25 μM protein was titrated into 5 μM or 2.5 μM, respectively, of TCIP3. For BCL6 titrations, 70 μM or 40 μM protein was titrated into 7 μM or 5 μM, respectively, of TCIP3. For ternary titrations, 20× 6xHis-p300^BD was incubated with 1x TCIP3 in the cell to drive saturation of the binary complex, followed by a titration of 10x BCL6^BTB from the syringe, at 310 rpm stirring at 25°C. The following concentrations were used in each run: 15 μM BCL6^BTB, 30 μM p300, and 1.5 μM TCIP3; 18 μM BCL6 ^BTB, 36 μM 6xHis-p300^BD, and 1.8 μM TCIP3; or 10 μM BCL6 ^BTB, 20 μM 6xHis-p300^BD, and 1 μM TCIP3. Alternatively, 20x BCL6^BTB was incubated with 1x TCIP3 in the cell to drive saturation of the binary complex, followed by a titration of 10× 6xHis-p300^BD from the syringe, at 310 rpm stirring at 25°C. The following concentrations were used in each run: 30 μM BCL6, 15 μM 6xHis-p300^BD, and 1.5 μM TCIP3; 20 μM BCL6 ^BTB, 10 μM 6xHis-p300^BD, and 1 μM TCIP3; or 40 μM BCL6 ^BTB, 20 μM 6xHis-p300^BD, and 2 μM TCIP3. The first one or two injections and outliers from instrument noise were routinely excluded. Data were fit to a one-site model using MicroCal LLC Origin software. The following injection parameters were used for each run: (Total injection number: 35; Cell temp: 25 °C; Ref power: 10; Initial delay: 250 s; stirring speed: 310; Feedback mode: High; volume: 8 μL; Duration: 13.7 s; Filter period: 2; initial injection volume: 2 μL).

SUDHL5 cells = assay: TUNEL and total DNA content co-staining of SUDHL5; format: cell-based, human; details: SUDHL5, 10 nM
Experimental: 1 million SUDHL5 cells were plated in 6 mL of media in 6-well plates and treated with compound for indicated timepoints and doses. 1.2 million total cells were counted, washed in PBS, fixed in 4% paraformaldehyde/PBS at a concentration of 10M/mL for 15 minutes at room temperature in the dark, washed in PBS, and stored in 70% ethanol at −20°C until ready for processing (at least 24 hours). DNA breaks in fixed cells were labeled with bromolated deoxyuridine (Br-dUTP or BrdU) by incubation with deoxynucleotidyl transferase (TdT) for 60 min at 37°C, washed, and stained with FITC-labeled anti-BrdU antibodies for 30 min at room temperature in the dark (BD 556405). Cells were resuspended in 1% BSA/PBS with 1:100 RNaseA (Invitrogen 12091021) and co-stained with 7-AAD for 30 min at room temperature in the dark (BD 559925). The suspension was gently agitated by shaking and analyzed by flow cytometry within 1 hour (BD Accuri).

Q: With CNC(=O)COc1cc2cc(Nc3nc(N4CCC(C(=O)N5CCN(CCC(=O)N6CCC(n7nc(N8CCCc9cc(-c%10cnn(C)c%10)c(C(F)F)cc98)c8c7CCN(C(=O)NC)C8)CC6)CC5)CC4)ncc3Cl)cc(OC)c2n(C)c1=O [TCIP3] as the compound, how does the Kd (p300^BD; p300BD titrated into BCL6BTB-saturated TCIP3, read-out: Kd, p300 into BCL6:TCIP3 (ternary)) read?
A: 2.37 nM

Q: What about the Kd (p300^BD; p300BD titrated into TCIP3, read-out: Kd, binary p300:TCIP3) of the same compound?
A: 8.28 nM

Q: What about the “α p300 into BCL6:TCIP3” value (p300^BD; α = Kd binary/Kd ternary) of the same compound?
A: 3.5

Q: And the “predominant cellular effect after 24 hours” value (SUDHL5 cells)?
A: arrest cells in G1
